Assay results published in the CheMixHub viscosity set.

Assay: xn = mol fraction of the nth substance listed

CC(C)CCCC(C)CCCC(C)CCCCC(C)CCCC(C)CCCC(C)C (centres undefined) + CCCCCCCC
viscosity [mPa·s], 100 kPa
Conditions | x1 = 0.238 | x1 = 0.492 | x1 = 0.709
293.15 K | 2.43 | 7.43 | 15.6
313.15 K | 1.6 | 4.27 | 7.68

CCCCCCCCCCCCCCCCCC(=O)OC + ClC(Cl)=C(Cl)Cl
viscosity [mPa·s], 101 kPa
Conditions | x1 = 0.05 | x1 = 0.1 | x1 = 0.15 | x1 = 0.2 | x1 = 0.25 | x1 = 0.3
298 K | 1.41 | 1.65 | 1.8 | 2.14 | 2.62 | 2.93
303 K | 1.33 | 1.55 | 1.68 | 2.01 | 2.36 | 2.63
308 K | 1.24 | 1.47 | 1.58 | 1.89 | 2.16 | 2.4
313 K | 1.17 | 1.39 | 1.47 | 1.76 | 1.97 | 2.2

Cc1ccc(C)cc1 + CC(C)CC(C)(C)C
308.15 K, 101 kPa
Conditions | viscosity [mPa·s]
x2 = 0.072 | 0.5266
x2 = 0.1401 | 0.5074
x2 = 0.2197 | 0.4893
x2 = 0.3074 | 0.4732
x2 = 0.4051 | 0.4595
x2 = 0.507 | 0.4479
x2 = 0.6185 | 0.44
x2 = 0.7382 | 0.4348
x2 = 0.8619 | 0.4333

CCCCCCCCN + c1ccccc1
303.15 K, 101 kPa
Conditions | viscosity [mPa·s]
x2 = 0.1044 | 1.099
x2 = 0.3007 | 0.9459
x2 = 0.498 | 0.7915
x2 = 0.597 | 0.7318
x2 = 0.6967 | 0.6798
x2 = 0.7998 | 0.6239
x2 = 0.899 | 0.5891

O=Cc1ccccc1 + CCCO
Conditions | viscosity [mPa·s]
308.15 K, 101 kPa, x2 = 0.8022 | 1.215

CCCCCCCCCCCCO + C1CCCCC1
303.15 K, 101.33 kPa
Conditions | viscosity [mPa·s]
x1 = 0.0858 | 1.109
x1 = 0.1621 | 1.502
x1 = 0.305 | 2.569
x1 = 0.405 | 3.522
x1 = 0.506 | 4.63
x1 = 0.5985 | 5.781
x1 = 0.6982 | 7.191
x1 = 0.7746 | 8.412
x1 = 0.862 | 9.989

CCCOC(=O)CCC + CCCCCCCCCCCCCC
298.15 K, 101.33 kPa
Conditions | viscosity [mPa·s]
x2 = 0.0852 | 0.852
x2 = 0.1135 | 0.877
x2 = 0.154 | 0.911
x2 = 0.2133 | 0.967
x2 = 0.2994 | 1.054
x2 = 0.3667 | 1.127
x2 = 0.4774 | 1.25
x2 = 0.6061 | 1.413
x2 = 0.7085 | 1.558
x2 = 0.8446 | 1.786
x2 = 0.9178 | 1.909

O=C(O)CCC(=O)O + CCCCO
101 kPa
Conditions | viscosity [mPa·s]
308.15 K, x1 = 0.0162 | 2.167
313.15 K, x1 = 0.0162 | 1.91
318.15 K, x1 = 0.0162 | 1.704
318.15 K, x1 = 0.017 | 1.704
318.15 K, x1 = 0.035 | 1.848
318.15 K, x1 = 0.0435 | 1.943
318.15 K, x1 = 0.047 | 1.943
323.15 K, x1 = 0.0162 | 1.51
323.15 K, x1 = 0.0435 | 1.726

OCCOCCO + COCCO
viscosity [mPa·s], 101 kPa
Conditions | 293.15 K | 298.15 K | 303.15 K
x2 = 0.063 | 32.91 | 25.61 | 18.57
x2 = 0.1046 | 29.55 | 23.08 | 16.7
x2 = 0.1548 | 25.97 | 20.37 | 14.71
x2 = 0.1955 | 23.41 | 18.4 | 13.26
x2 = 0.2599 | 19.9 | 15.69 | 11.28
x2 = 0.3032 | 17.82 | 14.1 | 10.11
x2 = 0.3425 | 16.13 | 12.78 | 9.154
x2 = 0.3978 | 14.02 | 11.13 | 7.954
x2 = 0.4463 | 12.38 | 9.856 | 7.03
x2 = 0.4981 | 10.82 | 8.633 | 6.143
x2 = 0.5488 | 9.459 | 7.565 | 5.383
x2 = 0.5957 | 8.321 | 6.686 | 4.755
x2 = 0.6523 | 7.085 | 5.718 | 4.079
x2 = 0.6987 | 6.176 | 5.003 | 3.59
x2 = 0.7511 | 5.269 | 4.232 | 3.094
x2 = 0.8021 | 4.393 | 3.612 | 2.67
x2 = 0.8546 | 3.602 | 2.998 | 2.276
x2 = 0.8964 | 3.013 | 2.551 | 1.995
x2 = 0.9423 | 2.414 | 2.084 | 1.714

CC(O)C(C)O (centres undefined) + CN1CCCC1=O
308.15 K, 101 kPa
Conditions | viscosity [mPa·s]
x1 = 0.0282 | 1.924
x1 = 0.0534 | 2.003
x1 = 0.1001 | 2.405
x1 = 0.1968 | 2.91
x1 = 0.295 | 3.344
x1 = 0.3939 | 4.159
x1 = 0.4746 | 5.033
x1 = 0.5881 | 7.256
x1 = 0.6924 | 8.758
x1 = 0.7916 | 13.58
x1 = 0.8948 | 23.29
x1 = 0.9431 | 32.45
x1 = 0.973 | 39.91

CCc1cccc(CC)c1 + CCCCCCCCCCCC
viscosity [mPa·s], 102 kPa
Conditions | x1 = 0.0991 | x1 = 0.2011 | x1 = 0.2996 | x1 = 0.4004 | x1 = 0.5006 | x1 = 0.5983 | x1 = 0.6998 | x1 = 0.7998 | x1 = 0.9001
293.15 K | 1.4 | 1.31 | 1.23 | 1.16 | 1.09 | 1.03 | 0.971 | 0.927 | 0.885
303.15 K | 1.18 | 1.11 | 1.05 | 1 | 0.94 | 0.9 | 0.852 | 0.811 | 0.778
313.15 K | 1.01 | 0.962 | 0.916 | 0.871 | 0.831 | 0.792 | 0.751 | 0.717 | 0.69
323.15 K | 0.886 | 0.843 | 0.806 | 0.768 | 0.735 | 0.703 | 0.67 | 0.642 | 0.618

O.O.O.O.O.O=S(=O)([O-])[S-].[Na+].[Na+] + N#C[S-].[K+]
101.33 kPa, x2 = 0.3
Conditions | viscosity [mPa·s]
294 K | 39.21
298 K | 31.11
303 K | 24.56
308 K | 19.44
313 K | 15.6
318 K | 13.1
323 K | 10.89

CC(C)CCCC(C)CCCC(C)CCCCC(C)CCCC(C)CCCC(C)C (centres undefined) + CCCC
viscosity [mPa·s]
Conditions | x1 = 0.161 | x1 = 0.162 | x1 = 0.316 | x1 = 0.319 | x1 = 0.555 | x1 = 0.559 | x1 = 0.721 | x1 = 0.724
293.15 K, 101 kPa | 1.06 | – | 3 | – | 9.55 | – | 16.5 | –
293.15 K, 101.33 kPa | 1.06 | – | 3 | – | 9.55 | – | 16.5 | –
313.15 K, 101 kPa | – | 0.797 | – | 2.04 | – | 5.26 | – | 8.16
313.15 K, 101.33 kPa | – | 0.797 | – | 2.04 | – | 5.26 | – | 8.16

O=Cc1ccccc1 + CCO
298.15 K, 101.33 kPa
Conditions | viscosity [mPa·s]
x1 = 0.05414 | 1.092
x1 = 0.08518 | 1.052
x1 = 0.1016 | 1.05
x1 = 0.1182 | 1.051
x1 = 0.1595 | 1.031
x1 = 0.1727 | 1.041
x1 = 0.3372 | 1.158
x1 = 0.6248 | 1.308
x1 = 0.8076 | 1.362
